Measurements reported in a melting point compilation (Tetko et al.; mined from patent text by program, amines drawn as free bases though some values may be those of a salt).

| Compound | melting point |
| --- | --- |
| Cc1ccc(Cl)c(Nc2ccccc2-c2nnc(N)s2)c1Cl | 219 to 226 °C |
| O=C1NC(=O)C(c2cn3c4c(cccc24)CCC3)=C1c1ccc(OCc2ccccc2)cc1 | 262 to 265 °C |
| CC(C)(F)Cn1c(N)nc2c(N)nc3ccccc3c21 | 251 °C |
| CC(=O)c1ccc2c(c1)c1cc(-c3ccc(Cl)cc3Cl)c(=O)n(C)c1n2C | 254 to 255 °C |
| CC(C)(CO)NCCCn1ccnc1 | 81 to 85 °C |
| C[C@H]1CCCN(C(=O)[C@@H]2Cc3ccccc3N2c2ccc3nncn3n2)C1 | > 300 °C |
| CCc1cccc(CC(=O)O)c1OCCCc1cn(Cc2nc(-c3ccccc3)oc2C)nc1C(C)C | 94 to 95 °C |
| COc1ccccc1C(=O)Nc1cc(C(=O)NCc2ccccc2)ccn1 | 205 to 207 °C |
| ONc1ccccc1F | 70 to 71 °C |
| N=c1ccccn1CC(O)COc1cccc2ccccc12 (stereo not given) | 138 to 141 °C |
| Nc1nc(Nc2cccnc2)sc1C(=O)c1ccc(Cl)cc1Cl | 209 to 210 °C |
| COc1cc(OC)cc(OCCCCCN2CCC(CNC(=O)c3cc(Cl)c(N)cc3OC)CC2)c1 | 112 to 113 °C |
| CCCOC(=O)C1=C(N)NC(C)=C(C(=O)OC)C1c1cccc([N+](=O)[O-])c1 (stereo not given) | 155 °C |
| CCOC(=O)/C(=C\c1ccc([N+](=O)[O-])cc1)P(=O)(OCC)OCC | 60 to 61 °C |
| Cc1cc(S(N)(=O)=O)ccc1N1CN(c2ccccc2)CC1=O | 206 to 210 °C |
| Nc1ccc2ncnc(Nc3cccc(C(F)(F)F)c3)c2c1 | 190 to 192 °C |
| Cn1c(C(F)(F)F)cc(=O)n(-c2cc(OCc3ccc(C(C)(C)C)cc3)c(Cl)cc2F)c1=O | 156 to 158 °C |
| O=c1cnc2c(NC(CO)CO)nc(SCc3cccs3)nc2[nH]1 | 220 to 223 °C |
| OCCc1ccc(OCCN2CCCCC2)cc1 | 68 °C |
| COCn1c(-c2nc3c(OC)ccc(N4CCOCC4)c3s2)nc2ccc(N3CCC(O)CC3)nc21 | 120 to 130 °C |
| Clc1ccc(N2CCN(Cc3ccc4[nH]ccc4c3)CC2)cc1 | 175 to 176 °C |
| CC(=O)Nc1ccn([C@@H]2C[C@H](OC(C)=O)[C@@H](O)[C@H]2O)c(=O)n1 (racemic) | 98 to 100 °C |
| Fc1ccc(-c2nc[nH]c2-c2cccs2)cc1 | 197 to 198 °C |
| CCNc1cccc2c(S(=O)(=O)Nc3ccc(Cl)nn3)cccc12 | 166 to 168 °C |
| COc1ccc(C(=O)N2CCc3cc(OCc4ccccc4)ccc3C2)cc1OC | 126 to 127 °C |

| Compound | melting point |
| --- | --- |
| C=CCN1CC(C)N(C(c2ccsc2)c2cccc(O)c2)CC1C (stereo not given) | 140 to 142 °C |
| COC(=O)c1c(Cl)cc(Cl)cc1NC(=O)CSc1ccc(O)cc1 | 149 to 151 °C |
| Nc1c(NC=O)c(=O)[nH]c(=O)n1Cc1ccc(Cl)cc1 | 274 to 278 °C |
| Cc1nc2c3c(ccn2c1C)C(O)CC(c1ccsc1)N3 (stereo not given) | 192 to 194 °C |
| Cc1c(Cl)cc(C=O)c(O)c1Cl | 94 to 95.1 °C |
| Cc1nn(C)c(O)c1C(=O)c1ccc(Cl)cc1Cl | 165 to 166 °C |
| CCCCN1CCCC1Cc1cccc(NC(N)=O)c1 (stereo not given) | 80 to 83 °C |
| CCN(CC)c1ccc(C(=O)O)nc1 | 146 to 148 °C |
| COc1cc(NC(=O)OCc2ccccc2)c(Cl)cc1C(=O)O | 182 to 183 °C |
| Cc1c(NC(=O)c2ccc(-c3cc4ccccc4o3)cc2)ccc2cc(CN3CCCC3)cnc12 | 217 to 218 °C |
| Cc1ccc2oc(-c3ccccc3-c3nnnn3C(c3ccccc3)(c3ccccc3)c3ccccc3)c(Br)c2c1 | 199 to 200 °C |
| C[C@H]1C[C@H](O)CN1c1ccc(C#N)c2ccccc12 | 149 to 151 °C |
| O=C(c1ccc([N+](=O)[O-])cc1)N1CCCc2ccccc21 | 86 to 88 °C |
| CCCCN1C(=O)c2cnc(-c3ccccc3)nc2N(C(=O)CN2CCN(C)CC2)c2ccccc21 | 90 to 94 °C |
| CC1(C)C(C=CC(=O)OCC(F)(F)F)C1C(=O)OC(C#N)c1ccc(F)c(Oc2ccccc2)c1 (stereo not given) | 56 °C |
| CON(C)C(=O)Nc1cccc(OC(C)C(N)=S)c1 (stereo not given) | 95 to 96 °C |
| O=C(NCC1CCN(CC2(C(=O)O)CCOCC2)CC1)N1C(=O)C2(CCCC2)c2ccccc21 | 146 °C |
| O=C(CCN1CCN(c2cccc3[nH]ccc23)CC1)c1csc2ccccc12 | 83 to 85 °C |
| COc1cc(OC)c(C(C)=O)c(O)c1OC | 114 to 116 °C |
| O=c1[nH]c2ncc(-c3ccc(-c4ncc[nH]4)cc3)nc2n1CC1CCCCC1 | 349 to 351 °C |
| CCCCCCCCCCCCCCC(=O)CC(=O)OC | 51 to 53 °C |
| CSC(C(=O)N(C)C)c1cccc(C(=O)c2ccccc2)c1N (stereo not given) | 153 to 155 °C |
| CC(C)CCNC(=O)c1ccccc1-c1ccccc1CNC(=O)c1ccccc1 | 147 °C |
| CCC(O)CN1CCN(C2Cc3ccc(F)cc3Sc3ccc(N)cc32)CC1 (stereo not given) | 184 to 186 °C |
| Cc1cccc(C2(C)OC(C)C(C)O2)c1NC(=O)CCl (stereo not given) | 55 to 57 °C |

| Compound | melting point |
| --- | --- |
| Cc1nc2cccc(S(N)(=O)=O)c2s1 | 223 to 224 °C |
| NC(=O)[C@@H]1[C@H](Nc2c(Br)cnc3[nH]c(-c4cncnc4)nc23)[C@H]2C=C[C@@H]1C2 | > 300 °C |
| O=C1CSC(=S)N1c1ccccn1 | 98 °C |
| CC12CCC3c4ccc(OC(=O)Cc5ccccc5)cc4CCC3C1CCC2=O (stereo not given) | 114 to 116 °C |
| O=C(O)CCCCCCCn1cnc(-c2ccccc2Cl)c1-c1ccccc1Cl | 145 to 146 °C |
| O=C(O)c1ccc(-c2cnc3c(O)ncnc3n2)cc1 | > 300 °C |
| NC(=O)c1ccc(S(=O)(=O)NCCC2CCC(CC(=O)O)CC2)cc1 (stereo not given) | 172 to 174 °C |
| CS(=O)(=O)c1ccc(-c2c(-c3ccc(F)cc3)c(=O)n3n2Cc2c(Cl)cccc2-3)cc1 | 237 to 240 °C |
| Cc1cc(Cn2c(=S)sc3ccccc32)cc(C)c1O | 164 to 165 °C |
| COc1cccc(CNC(=O)c2nc3scc(-c4ccccc4)c3c(=O)[nH]2)c1 | 177 to 178 °C |
| CC1Cc2cc3c(cc2C(c2ccc([N+](=O)[O-])cc2)=NN1c1nc(C(=O)O)cs1)OCO3 (stereo not given) | > 260 °C |
| C#CCC1(C2CCC3C(O[Si](C)(C)C(C)(C)C)CCCC32C)CC1 (stereo not given) | 49 to 50 °C |
| CCC(=O)OCCSCC(=O)NC/C=C\COc1cc(CN2CCCCC2)ccn1 | 99 to 106 °C |
| CCOC(=O)CC1=CC2C(CCC3(C)C(O)CCC23)c2ccc(O)cc21 (stereo not given) | 178 °C |
| O=C(c1ccn(S(=O)(=O)c2ccccc2)c1)c1ccc(Cl)cc1Cl | 122 °C |
| CCOC(=O)Cc1ccc(Nc2ncc3c(n2)N(C)C(=O)N(c2c(Cl)cccc2Cl)C3)cc1 | 211 to 212 °C |
| CC(C)=CCc1c(O)n2c3c(nc2n(Cc2ccccc2)c1=O)N(C)CN(C)C3=O | 153 to 154 °C |
| CS(=O)(=O)c1ccc(C(CC2CCCC2)C(=O)Nc2ccc(Br)cn2)cc1Br (stereo not given) | 83 to 86 °C |
| O=C(NCCN1CCOCC1)c1ccc2cc(C(=O)O)[nH]c2c1 | 227 to 233 °C |
| N=C(N)Nc1nc(C(=O)NCC(=O)NC(CC(=O)O)c2cccnc2)cs1 (racemic) | 186 °C |
| c1ccc(CCN2CCC(Nc3nc4ccccc4n3CCc3cccs3)CC2)cc1 | 118 °C |
| Cc1c(F)c(F)c(COC(=O)[C@@H]2[C@@H](C=O)C2(C)C)c(F)c1F | 43.2 °C |
| Cn1c(Nc2cc(C(F)(F)F)ccc2C(F)(F)F)nc(C(F)(F)F)cc1=O | 155 to 156 °C |
| CN(C(=O)Nc1nc(OCC(F)(F)F)nc(OCC(F)(F)F)n1)c1ccc(Cl)cc1 | 218 to 219 °C |
| CCCn1cncc1CSc1ccc(NC(=O)C(F)(F)F)cc1 | 82 to 84 °C |

| Compound | melting point |
| --- | --- |
| CCCCCCCCCCNC(=S)Nc1ccc(NNC=O)cc1 | 150 to 152 °C |
| COC(=O)C(Oc1cc(OCc2ccsc2)ccc1C#N)c1ccccc1Br (racemic) | 92 to 95 °C |
| CCOC(=O)C1=C(C)Nc2nc(N(C)C)nc(N)c2C1c1ccccc1C(F)(F)F (stereo not given) | 210 °C |
| CCOC(=O)c1cn(Cc2ccc(OCc3ccccc3)cc2)nc1-c1ccc(F)cc1 | 103 to 104 °C |
| N#CC(=NOCF)C(N)=O | 124 to 125 °C |
| CCOC(=O)/C=C/c1ccc(Cl)nn1 | 106 to 110 °C |
| Nc1cnn2c1NCC2 | 177 to 179 °C |
| Cc1c(N2CC[C@@H](C3(N)CC3)C2)ccc2c(=O)c(C(=O)O)cn(C3CC3)c12 | 230 to 233 °C |
| CC(C)(C)C(=O)Oc1ccc(OC(=O)C(C)(C)C)c(C(=O)O)c1 | 159 to 162 °C |
| O=C(N1CCC(c2nc(-c3c(Cl)cccc3Cl)no2)CC1)N1CCCc2ccccc21 | 63 to 68 °C |
| OC(CCN1CCN(c2ccccc2)CC1)COc1cccc(C(F)(F)F)c1 (stereo not given) | 73 to 74 °C |
| O=C(c1ccc(F)c(F)c1)N1CCC[C@H](c2nc(-c3ccc([N+](=O)[O-])cc3)no2)C1 | 138 to 140 °C |
| COc1cc2c(cc1OCc1ccccc1)C(C1(c3ccccc3OC)CC1)N(C)CC2 (stereo not given) | 118 °C |
| CC(C)n1nc(-c2sc(NC(=O)CNCc3ccccc3)nc2-c2ccccc2)ccc1=O | 144 to 145 °C |
| Cc1nnc2n1-c1sc(C(=O)O)cc1C(c1ccccc1Cl)=NC2 | 302 °C |
| CC(C)CC(=O)N1CCC(c2nc3cc(-c4ccc(C(N)=O)c(F)c4)ccc3o2)CC1 | 186 to 190 °C |
| CNC(=O)C(=NOC)c1ccccc1C#Cc1ccccc1C | 128 to 129 °C |
| CNS(=O)(=O)c1cc(OC)c(OC)c(C(=O)O)c1 | 164 to 165 °C |
| Cc1ccn2c(CN(C)C)c(-c3ccc4sc(=O)n(C)c4c3)nc2c1 | 167 to 168 °C |
| CCOc1cc(Cl)c2cc(F)c(F)c(F)c2n1 | 45 °C |
| O=C1c2ccccc2-c2ccccc2C1(O)C(F)(F)F (stereo not given) | 148 to 151 °C |
| CCCNC(=O)C(C)=Cc1ccc2[nH]ccc2c1 | 92 to 94 °C |
| CCSC1=C(c2ccc(O)cc2)C(=O)c2cc(O)ccc21 | 78 to 81 °C |
| CCCc1nc(C(C)(C)O)c(C(=O)OCC)n1Cc1ccc(-c2ccccc2C#N)cc1 | 92 to 93 °C |
| COc1cc(C=O)c(C)c(OC)c1 | 63.4 to 65.1 °C |
